From BindingDB's records for doi:10.1016/s0960-894x(02)00371-2 (Neurocrine Biosciences, 2002)

Target: Gonadotropin-releasing hormone receptor (Rattus norvegicus) (UniProt P30969)
Assay: Compound was evaluated in cloned rat Gonadotropin-releasing hormone receptor assay for its ability to displace the binding of [125 I-Tyr, DLeu, NMeLeu, Pro-NEt]GnRH agonist

Sequence of Gonadotropin-releasing hormone receptor (Rattus norvegicus) (P30969 whole entry, looked up): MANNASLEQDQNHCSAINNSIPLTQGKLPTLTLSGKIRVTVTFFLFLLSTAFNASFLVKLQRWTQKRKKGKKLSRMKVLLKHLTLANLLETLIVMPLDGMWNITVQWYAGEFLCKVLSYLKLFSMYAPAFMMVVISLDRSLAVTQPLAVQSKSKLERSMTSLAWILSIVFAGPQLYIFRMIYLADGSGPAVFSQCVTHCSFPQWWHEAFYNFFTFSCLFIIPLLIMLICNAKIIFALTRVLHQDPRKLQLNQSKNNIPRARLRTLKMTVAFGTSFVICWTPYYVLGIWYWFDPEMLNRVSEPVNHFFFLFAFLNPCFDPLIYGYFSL

Ki: 12 µM
Structure (SMILES): COc1ccc(-c2nc3n(Cc4ccccc4F)c(C)c(-c4ccc5c(c4)OCO5)c(=O)n3c2CN(C)CCc2ccccn2)cc1 [6-Benzo[1,3]dioxol-5-yl-8-(2-fluoro-benzyl)-2-(4-methoxy-phenyl)-7-methyl-3-{[methyl-(2-pyridin-2-yl-ethyl)-amino]-methyl}-8H-imidazo[1,2-a]pyrimidin-5-one]
